From ChEMBL document CHEMBL1154198, “Chemical genetics of Plasmodium falciparum” (Nature, 2010)

Columns and labels:
Plasmodium falciparum [1] = experiment: ST_JUDE: Plasmodium falciparum K1 EC50 (uM) as measured by SYBR green dye; type: functional, organism-based
Plasmodium falciparum [2] = experiment: ST_JUDE: Plasmodium falciparum 3D7 EC50 (uM) as measured by SYBR green dye; type: functional, organism-based

Structure (SMILES)	EC50 (Plasmodium falciparum [1]) [µM]	EC50 (Plasmodium falciparum [2]) [µM]
COC(=O)C1=CNC=C(C(=O)OC)C1c1ccc(Cl)c([N+](=O)[O-])c1	0.744	0.62
Cc1cccc(NC(c2cccc(Cl)c2)c2ccc3cccnc3c2O)n1 (configuration not stated)	3.34	3.47
CCOC(=O)c1ccc(N2Cc3ccccc3C2)cc1O	> 15	> 15
COc1cc(/C=C(\C#N)c2nc(-c3ccc(Cl)cc3)cs2)cc([N+](=O)[O-])c1O	> 15	> 15
CCOc1cccc(-c2cc(C(=O)Nc3cc(C)ccn3)c3ccccc3n2)c1	> 15	> 15
Cc1ccc(-n2nc(C)c3c(C)c(CCC(=O)Nc4ccc5[nH]c(-c6cccnc6)nc5c4)c(C)nc32)cc1C	1.04	0.798
Cc1cccc(CN2C(=O)/C(=C\c3ccc(C(=O)NC4CCCC4)cc3)Sc3ccccc32)c1	4.69	3.99
O=C(Nc1ccc([N+](=O)[O-])cc1)Nc1cc(Cl)cc(Cl)c1	> 15	> 15
OCCNc1nc(Nc2ccc(Br)cc2)nc2ccccc12	1.7	0.829
CS(=O)(=O)N(CC(=O)Nc1ccccc1Sc1ccccc1)c1ccc(Cl)c(Cl)c1	5.95	4.06
COc1ccc2nc(N(Cc3cccnc3)C(=O)C3CCCCC3)sc2c1	2.65	3.51
COc1ccc(C2C(C(=O)Nc3cc(OC)ccc3OC)c3ccccc3C(=O)N2C)cc1 (configuration not stated)	6.96	> 15
CC(C)(C)OC(=O)CCN1C(=O)CSC1c1cnccc1-c1ccc(Br)cc1 (configuration not stated)	3.17	2.32
CC(C)CC(=O)NC(c1ccc(Cl)cc1)c1c(O)ccc2ccccc12 (configuration not stated)	4.78	4.17
CCOC(=O)c1ccc(Nc2nc3nonc3nc2NCc2ccco2)cc1	> 15	> 15
CCCSc1nc2sc3c(c2c(=O)n1-c1ccc(C)cc1)CCN(Cc1ccccc1)C3	1.61	1.31
Cc1cccc2sc(NNC(=O)c3ccc(S(=O)(=O)N(C)C)cc3)nc12	5.83	7.12
CCc1ccc(C(O)(CCC(C)C)C(CN2CCOCC2)c2ccccc2)cc1 (configuration not stated)	1.99	2.45
CCCCC(=O)NC(c1ccc(Cl)cc1Cl)c1ccc2cccnc2c1O (configuration not stated)	5.3	> 15
N=C(N/N=C\c1ccc(F)cc1)N/N=C\c1ccc(F)cc1	4.74	0.753
COc1ccccc1/C=C/CN1CCC(C(Cc2ccccc2)N(C)C(=O)c2cc(C)nn2C)CC1 (configuration not stated)	> 15	> 15

Structure (SMILES)	EC50 (Plasmodium falciparum [1]) [µM]	EC50 (Plasmodium falciparum [2]) [µM]
CCN(CC)C(=O)c1sc(NC(=O)CCc2ccccc2)c(C(=O)OC(C)C)c1C	> 15	> 15
Cc1nc2sc(C(c3ccc(Cl)cc3)N3CCC4(CC3)OCCO4)c(O)n2n1 (configuration not stated)	> 15	> 15
CCCCC(=O)NC(c1ccc(C(C)C)cc1)c1cc([N+](=O)[O-])c2cccnc2c1O (configuration not stated)	5.13	> 15
CCOc1ccc(NC(=O)C2c3ccccc3C(=O)N(C3CCCC3)C2c2cccs2)cc1 (configuration not stated)	3.88	2.95
COc1ccc2cc3cc(C(=O)Nc4ccccc4N4CCN(C)CC4)sc3nc2c1	> 15	> 15
Cc1cccc(CN2C(=O)/C(=C\c3ccccc3)Sc3ccc(C(=O)NCCN(C)C4CCCCC4)cc32)c1	3.75	1.78
Cc1cc(C)c(S(=O)(=O)N(C)CC(=O)Nc2cccc(C(F)(F)F)c2)c(C)c1	> 15	> 15
CCC(=O)NC(c1ccc(OC)c(OC)c1)c1ccc2cccnc2c1O (configuration not stated)	4.78	3.8
COc1cc(/C=C/C(=O)Nc2cccc(Br)c2)cc(OC)c1OC	> 15	> 15
O=C1C(Nc2ccc(Br)cc2)=C(N2CCOCC2)C(=O)c2ccccc21	0.377	1.79
CCOc1ccc(/C=C2\Oc3c(ccc(O)c3CN(CC)CC)C2=O)cc1	5.17	> 15
O=C(Nc1cccc(OC(F)(F)F)c1)c1ccc(Br)o1	> 15	> 15
CCOc1ccc(-c2nonc2NC(=O)C(C)C)cc1OCC	1.8	1.39
COc1ccc(S(=O)(=O)Nc2ccc(Nc3nc(C)cc(Nc4ccc(C)cc4)n3)cc2)cc1	7.51	0.618
CCOc1ccc(-c2nc(NC(=O)c3cccc(S(C)(=O)=O)c3)sc2C)cc1	> 15	> 15
CCc1c(C)nc(-n2nc(C)cc2NC(=O)c2cccc(OC)c2)nc1O	> 15	> 15
Cc1cccn2c(=O)nc(SCc3cccc(F)c3)nc12	10.1	> 15
COC(=O)C1=C(C)N=c2s/c(=C\c3ccccc3OC(C)=O)c(=O)n2C1c1ccccc1Cl (configuration not stated)	> 15	> 15
CC(C)COc1ccc(COC2C(C3COC(C)(C)O3)OC3OC(C)(C)OC32)cc1 (configuration not stated)	> 15	7.79
CCOCc1cc(CN2CCN(CCC(C)C)C(CCO)C2)ccc1OC (configuration not stated)	> 15	> 15
N#C/C(=C/c1ccc(O)c([N+](=O)[O-])c1)c1nc(-c2ccc(Cl)cc2)cs1	> 15	> 15

Structure (SMILES)	EC50 (Plasmodium falciparum [1]) [µM]	EC50 (Plasmodium falciparum [2]) [µM]
CCN1CCN(c2cc(C)c3cc(NC(=S)NCCN4CCN(c5cccc(Cl)c5)CC4)ccc3n2)CC1	6.15	2.4
CCOc1c(Br)cc(C2C(C#N)=C(N)Oc3cc4c(cc32)OCO4)cc1OC (configuration not stated)	2.73	2.32
COc1cccc2c(C)nc(N=C(N)N)nc12	> 15	> 15
COc1ccc(S(=O)(=O)n2nc(-c3ccc(Cl)cc3)cc2N)cc1OC	> 15	6.54
Cn1c(=N)n(CC(O)c2ccc(Cl)c(Cl)c2)c2ccccc21 (configuration not stated)	2.43	2.3
O=C(c1cccs1)N(Cc1cccnc1)c1nc2c(Cl)cccc2s1	3.84	> 15
COc1ccc(-c2onc(C(F)(F)F)c2Oc2cnn(-c3ccccc3)c2)c(O)c1	1.61	1.81
COc1ccc(C(C)(C)C)cc1S(=O)(=O)Nc1ccc(Nc2nc(C)cc(N(C)C)n2)cc1	1.32	0.741
CCOC(=O)c1c(CN(C)C)n(-c2ccccc2)c2cc(Br)c(O)cc12	> 15	4.14
COc1ccc2c(c1)C=C/C(=C\c1sc3ccccc3[n+]1C)N2C	0.145	0.163
CCC(=O)NC(c1ccc(N(C)C)cc1)c1ccc2cccnc2c1O (configuration not stated)	4.44	4.07
COc1ccc(-n2c(N)c(C#N)c3nc4ccccc4nc32)cc1	1.61	0.487
CCCCCN1CCN(c2nc3c(c(=O)[nH]c(=O)n3C)n2Cc2ccc(C)cc2)CC1	> 15	> 15
O=C1CC(c2ccc(Cl)cc2Cl)C2=C(CC(c3ccc(F)cc3)CC2=O)N1 (configuration not stated)	> 15	> 15
COc1cc2nnc(/C=C/C(C)=O)c(-c3ccc(C)o3)c2cc1OC	> 15	> 15
CCCc1cc(O)nc(-n2nc(C)cc2NC(=O)c2cc(C)cc(C)c2)n1	> 15	> 15
CCOC(=O)N1CCN(C(=O)Nc2cc(C(F)(F)F)cc(C(F)(F)F)c2)CC1	> 15	2.05
CCc1ccc(C(Nc2ccccn2)c2cc(Cl)c3cccnc3c2O)cc1 (configuration not stated)	> 15	4.41
Cc1cc(C)c2c(c1)c(-c1ccccc1)c(-c1ccccc1)n2CC(O)CN1CCN(CCO)CC1 (configuration not stated)	1.59	2.16
